We go through nine compounds from paper PMC2605521 (Journal of medicinal chemistry, 2008).

“Also recorded” adds a separate entry of the source. Where two headings read alike, the source gives them in different places.

In test [1] the target is T1, μ-receptors (Homo sapiens, UniProt P35372). The test is described as follows: biochemical. Type of test: biochemical.
For another test, the target named is κ receptors (Homo sapiens, UniProt P41145). The test is described as follows: [35S]GTP-γ-S functional assay, κ-antagonism. Type of test: biochemical. To be noted: for κ-antagonist activity in the functional assay (in words): [35S]GTPγS assay. On the technique in general: Binding of GTPγS marks nucleotide exchange on a G protein.
κ receptors, sequence (P41145 whole entry): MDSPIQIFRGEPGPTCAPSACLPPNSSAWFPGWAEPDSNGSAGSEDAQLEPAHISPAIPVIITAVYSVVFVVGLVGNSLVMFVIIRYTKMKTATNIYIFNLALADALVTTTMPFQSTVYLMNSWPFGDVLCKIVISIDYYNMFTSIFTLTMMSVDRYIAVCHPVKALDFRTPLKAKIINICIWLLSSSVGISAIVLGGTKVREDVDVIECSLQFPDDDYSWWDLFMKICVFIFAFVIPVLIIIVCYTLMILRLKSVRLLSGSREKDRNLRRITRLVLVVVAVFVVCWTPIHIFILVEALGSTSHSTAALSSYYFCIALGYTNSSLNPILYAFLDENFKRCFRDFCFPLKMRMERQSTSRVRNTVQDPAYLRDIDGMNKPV
Another test deals with δ receptors (Homo sapiens, UniProt P41143). The test is described as follows: [35S]GTP-γ-S functional assay, δ-antagonism. Type of test: biochemical.
δ receptors, sequence (P41143 whole entry): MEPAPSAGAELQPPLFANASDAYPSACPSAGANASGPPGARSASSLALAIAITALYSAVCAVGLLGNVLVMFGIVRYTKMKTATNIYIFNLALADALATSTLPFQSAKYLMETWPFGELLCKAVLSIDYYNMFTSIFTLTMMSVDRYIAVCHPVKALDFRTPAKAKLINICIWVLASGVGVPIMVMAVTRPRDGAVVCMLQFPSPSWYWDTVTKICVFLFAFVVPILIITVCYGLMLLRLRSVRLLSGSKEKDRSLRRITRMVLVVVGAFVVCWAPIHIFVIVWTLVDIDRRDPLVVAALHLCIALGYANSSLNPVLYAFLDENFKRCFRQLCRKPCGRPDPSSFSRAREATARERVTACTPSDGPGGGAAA
A further test has as its target δ-opioid receptor (Homo sapiens, UniProt P41143). The test is described as follows: [125I]Ioxy binding, CHO cells expressing δ-opioid receptor.
The target in test [2] is T2, μ-opioid receptor (Homo sapiens, UniProt P35372). The test is described as follows: [125I]Ioxy binding, CHO cells expressing μ-opioid receptor. The settings on record: for affinity for μ-receptors (in words): compared with the N-methyl analogues 46 and 47.
T2 sequence (P35372 whole entry, species assumed): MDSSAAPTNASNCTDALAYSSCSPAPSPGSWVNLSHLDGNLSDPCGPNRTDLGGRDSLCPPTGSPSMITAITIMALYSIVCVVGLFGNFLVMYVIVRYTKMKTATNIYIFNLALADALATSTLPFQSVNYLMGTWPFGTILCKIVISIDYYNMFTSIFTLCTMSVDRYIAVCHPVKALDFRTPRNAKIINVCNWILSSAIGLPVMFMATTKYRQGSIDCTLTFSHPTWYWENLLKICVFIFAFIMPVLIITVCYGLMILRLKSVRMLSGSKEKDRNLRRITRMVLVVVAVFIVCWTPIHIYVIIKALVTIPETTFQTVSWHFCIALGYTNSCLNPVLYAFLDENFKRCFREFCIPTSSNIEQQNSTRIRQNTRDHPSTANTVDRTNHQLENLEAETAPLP
For test [3], the target named is T2, μ-opioid receptor. To be noted: read-out: Ki at μ-receptors; earlier work; cited from earlier work.
For test [4], the target named is T1, μ-receptors. The settings on record: [35S]GTPγS assay; cited from earlier work.
The conditions of test [5]: cited from earlier work.

T1 sequence (P35372 whole entry, species assumed): as above
δ-opioid receptor, sequence (P41143 whole entry): as the sequence (P41143 whole entry) above

Take `Oc1ccc2c(c1)[C@@]13CCN(CCc4ccccc4)[C@@H](CC[C@H]1O2)C3` (racemic) [Compound 16, (4R*,6aS*,11bR*)-2,3,4,5,6,6a-Hexahydro-3-phenethyl-1H-4,11b-methanobenzofuro[3,2-d]azocine-10-ol]: the Kb on μ-receptors [1] amounted to 260 ± 79 nM; at κ receptors it was 19 ± 5.2 nM; on δ receptors, 17000 ± 4200 nM. For the same compound, at κ receptors, the “κ-antagonist activity in the functional assay (in words)” value is reported as “moderately active κ-antagonists; also recorded: moderately potent κ-receptor antagonists”.
In general, Ki refers to a dissociation constant, usually derived from enzyme kinetics or from competition with a known ligand. `CN1CC[C@@]23C[C@@H]1CC[C@H]2Oc1c(O)cccc13` (racemic) [Compound 20, (4R*,6aS*,11bR*)-2,3,4,5,6,6a-Hexahydro-3-methyl-1H-4,11b-methanobenzofuro[3,2-d]azocine-8-ol]: the Ki on δ-opioid receptor is greater than 10000 nM.
As to `Oc1cccc2c1O[C@@H]1CC[C@H]3C[C@@]21CCN3CCc1ccccc1` (racemic) [Compound 24, (4R*,6aS*,11bR*)-2,3,4,5,6,6a-Hexahydro-3-phenethyl-1H-4,11b-methanobenzofuro[3,2-d]azocine-8-ol], at μ-receptors [1], the Kb is 77 ± 13 nM and the “μ-antagonist activity in the functional assay (in words)” value was “weak μ-antagonist activity”. In addition, on κ receptors, the Kb came to 21 ± 3.4 nM and the “κ-antagonist activity in the functional assay (in words)” value is “moderately active κ-antagonists; also recorded: moderately potent κ-receptor antagonists”. In addition, the Kb at δ receptors turned out to be 8000 ± 1500 nM.
Turning to `CN1C[C@@H]2Oc3c(O)cccc3[C@@]23CCC[C@@H]1C3` (racemic) [Compound 46, (3R*,6aS*,11aR*)-1,3,4,5,6,11a-Hexahydro-2-methyl-2H-3,6a-methanobenzofuro[2,3-c]azocin-10-ol], the affinity at μ-opioid receptor [2] corresponds to a Ki of 8000 ± 406 nM.
Take `CN1C[C@@H]2Oc3ccc(O)cc3[C@@]23CCC[C@@H]1C3` (racemic) [Compound 47, (3R*,6aS*,11aR*)-1,3,4,5,6,11a-Hexahydro-2-methyl-2H-3,6a-methanobenzofuro [2,3-c]azocin-8-ol]: the inhibition constant Ki on μ-opioid receptor [2] was 2930 ± 203 nM.
As for `Oc1cccc2c1O[C@H]1CN(CCc3ccccc3)[C@@H]3CCC[C@]21C3` (racemic) [Compound 51, (3R*,6aS*,11aR*)-1,3,4,5,6,11a-Hexahydro-2-phenethyl-2H-3,6a-methanobenzofuro [2,3-c]azocin-10-ol], on μ-opioid receptor [2], the “affinity for μ-receptors (in words)” value was “only slight affinity”.
Take `Oc1ccc2c(c1)[C@]13CCC[C@H](C1)N(CCc1ccccc1)C[C@@H]3O2` (relative stereo) [Compound 52]: the “affinity for μ-receptors (in words)” value on μ-opioid receptor [2] is recorded as “only slight affinity”.
On to `Oc1cccc2c1O[C@H]1[C@H]3CCC[C@@]21CCN3CCc1ccccc1` (single isomer, unassigned) [(−)-N-phenethyl ortho-f isomer], for which the Ki at μ-opioid receptor [3] is 7 nM. Besides, the “potency as μ-opioid antagonist (in words)” value at μ-receptors [4] is listed as “more potent than naloxone”.
Take `Oc1cccc2c1O[C@H]1[C@@H]3CCC[C@]21CCN3CCc1ccccc1` (single isomer, unassigned) [(−)-N-phenethyl para-e isomer]: the “antinociceptive activity (in words)” value in test [5] is “morphine-like antinociceptive”.
